“And” between values parts separate entries of the source, which are not always exact repeats. Equal values may be shown once.
Key:
[1] = target: T1, EaPycC (Elizabethkingia anophelis, UniProt A0AAT8XUA8); experiment: LC-MS/MS; assay type: biochemical; details: 0.5 mM CTP, 1 μM enzyme, 25 °C overnight
T1 construct: full-length, thioredoxin-His tag cut by TEV, extra N-terminal Gly, E. coli BL21(DE3); homodimer
T1 sequence (A0AAT8XUA8 2-342): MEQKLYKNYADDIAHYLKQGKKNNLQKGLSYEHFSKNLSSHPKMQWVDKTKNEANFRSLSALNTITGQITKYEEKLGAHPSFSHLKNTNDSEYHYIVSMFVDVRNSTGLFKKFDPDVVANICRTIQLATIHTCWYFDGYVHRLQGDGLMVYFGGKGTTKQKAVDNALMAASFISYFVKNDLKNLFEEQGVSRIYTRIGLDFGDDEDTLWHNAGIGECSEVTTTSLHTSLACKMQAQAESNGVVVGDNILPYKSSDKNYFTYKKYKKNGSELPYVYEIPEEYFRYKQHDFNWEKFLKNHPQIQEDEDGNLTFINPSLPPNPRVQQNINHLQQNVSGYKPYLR

[2] = target: T2, AhPycTIRCNBD (Acinetobacter haemolyticus, UniProt N9FD06); experiment: isothermal titration calorimetry; assay type: binding
T2 construct: gene F927_00926
T2 sequence (N9FD06 entry or part of it): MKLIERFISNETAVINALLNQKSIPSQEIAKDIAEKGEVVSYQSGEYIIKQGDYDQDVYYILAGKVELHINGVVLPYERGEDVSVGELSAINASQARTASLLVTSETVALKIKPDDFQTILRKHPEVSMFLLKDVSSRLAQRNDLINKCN
From the text: isothermal titration calorimetry on AhPycTIRCNBD

[3] = target: T3, AnPycC (Anabaena sp. CA = ATCC 33047, UniProt A0ACD6BAV8); experiment: LC-MS/MS; assay type: biochemical; details: 0.5 mM UTP, 1 μM enzyme, pH 9.0, 25 °C overnight
T3 construct: full-length, thioredoxin-His tag cut by TEV, extra N-terminal Gly, E. coli BL21(DE3); monomer in solution, dimer in crystal
T3 sequence (A0ACD6BAV8 1-280): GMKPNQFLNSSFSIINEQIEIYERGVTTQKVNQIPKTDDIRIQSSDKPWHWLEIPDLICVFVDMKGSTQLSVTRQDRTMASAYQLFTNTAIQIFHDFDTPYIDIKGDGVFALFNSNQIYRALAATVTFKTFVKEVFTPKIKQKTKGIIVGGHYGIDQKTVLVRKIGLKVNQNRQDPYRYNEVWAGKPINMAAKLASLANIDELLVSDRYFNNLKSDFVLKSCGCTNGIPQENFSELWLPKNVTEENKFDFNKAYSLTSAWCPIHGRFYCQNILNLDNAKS

[4] = target: SmPycTIRCNBD (Stenotrophomonas maltophilia); experiment: isothermal titration calorimetry; assay type: binding
From the text: isothermal titration calorimetry on SmPycTIRCNBD

[5] = target: NpPycTIRCNBD (Novosphingobium pentaromativorans, UniProt A0AAT8XUA9); experiment: isothermal titration calorimetry; assay type: binding
NpPycTIRCNBD, sequence (A0AAT8XUA9 entry or part of it): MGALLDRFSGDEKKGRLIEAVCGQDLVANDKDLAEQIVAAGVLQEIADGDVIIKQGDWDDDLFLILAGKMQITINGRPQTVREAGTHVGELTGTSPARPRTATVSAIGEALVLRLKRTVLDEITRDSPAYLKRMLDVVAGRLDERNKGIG
From the text: isothermal titration calorimetry on NpPycTIRCNBD

[6] = target: T4, PsPycTIRCNBD (Pseudovibrio sp. W64, UniProt A0ACD6BAZ5); experiment: isothermal titration calorimetry; assay type: binding
T4 construct: dimer with cUMP
T4 sequence (A0ACD6BAZ5 entry or part of it): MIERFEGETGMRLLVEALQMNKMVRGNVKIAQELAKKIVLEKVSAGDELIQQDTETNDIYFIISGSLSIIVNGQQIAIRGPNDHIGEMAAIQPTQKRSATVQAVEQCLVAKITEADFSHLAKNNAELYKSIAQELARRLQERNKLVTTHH
From the text: isothermal titration calorimetry on PsPycTIRCNBD

[7] = target: cUMP-bound PycTIR (gel-filtration data); experiment: SEC; gel filtration of cUMP-bound PycTIR (Supplementary Fig. 10)

Nc1ccn([C@@H]2O[C@@H]3COP(=O)(O)O[C@H]3[C@H]2O)c(=O)n1 [cCMP]
LC-MS/MS [1]: an elution peak corresponding to the cCMP product was detected

O=c1ccn([C@@H]2O[C@@H]3COP(=O)(O)O[C@H]3[C@H]2O)c(=O)[nH]1 [cUMP]
Kd [2]: 820 nM
LC-MS/MS [3]: The production of cUMP by purified AnPycC proteins was confirmed by LC-MS/MS
Kd [4]: 270 nM
Kd [5]: 1 nM
Kd [6]: 1 nM

cUMP-bound PycTIR (gel-filtration data)
stoichiometry N [7]: 2 and 4
